Results from patent US20240246905A1 (University of Leicester, priority 2021, published 2024).
Converted amounts (≈) assume the structure as drawn.

Columns and labels:
MRSA 252 [1] = experiment: Disc diffusion (Kirby-Bauer), zone of inhibition; type: cell-based, Staphylococcus aureus; settings: Staphylococcus aureus, 500 μg/mL, '/' = no zone, read-out: Zone of inhibition
In short: (§1)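 Kirby-Bauer per CLSI 2017: 1 in 200 dilutions of overnight cultures (LB for Gram-negatives, TSB for Gram-positives) spread on Mueller-Hinton agar. Discs loaded with 50 μL antibiotic were added and plates incubated 24 h at 37 °C. Zone of inhibition recorded.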

MSSA 476 [2] = experiment: Disc diffusion (Kirby-Bauer), zone of inhibition; type: cell-based, Staphylococcus aureus; settings: Staphylococcus aureus, 500 μg/mL, '/' = no zone, read-out: Zone of inhibition
In short: as §1

red blood cells = experiment: Hemolysis assay (CO-ADD); type: cell-based; settings: 32 μg/mL highest concentration tested
Excerpt: A problem often encountered by emerging drugs is hemolysis, also known as drug-induced immune hemolytic anemia.

Escherichia coli DH5α = experiment: Disc diffusion (Kirby-Bauer), zone of inhibition; type: cell-based; settings: Escherichia coli DH5α; 500 μg/mL; '/' = no zone; read-out: Zone of inhibition
In short: as §1

[3] = tested on: Staphylococcus aureus 15981; experiment: Disc diffusion (Kirby-Bauer), zone of inhibition; type: cell-based; settings: Staphylococcus aureus 15981; 500 μg/mL; '/' = no zone; read-out: Zone of inhibition
In short: as §1

MRSA 252 [4] = experiment: MIC, broth micro-dilution; type: cell-based, Staphylococcus aureus; settings: Staphylococcus aureus, read-out: MIC
In short: (§2)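 Broth micro-dilution followed CLSI 2017: 1:2 antibiotic dilutions in TSB were inoculated at 5×10^5 CFU/mL. OD was recorded every 12 min over 18 h at 37 °C, and MIC was derived from sigmoidal dose-response fits.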

MSSA 476 [5] = experiment: MIC, broth micro-dilution; type: cell-based, Staphylococcus aureus; settings: Staphylococcus aureus, MSSA, read-out: MIC
In short: as §2

HEK293 cells = experiment: Cytotoxicity assay, resazurin (CO-ADD)
In short: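 HEK293 cells in DMEM with 10% FBS were exposed to compounds at a single concentration of 32 μg/mL for 20 h at 37° C, 5% CO2. Viability read by resazurin fluorescence (2.3 μg/mL final, 3 h; F560/590). CC50 from sigmoidal dose-response fitting.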

[6] = tested on: various Staphylococcus aureus strains; experiment: Disc diffusion, Staphylococcus aureus strain study; type: cell-based; settings: Staphylococcus aureus, 500 μg/mL
Excerpt: At this point in the study it was decided to perform a disc diffusion assay study on 50 S. aureus strains. […] Moreover, by employing a range of mutant strains of S. aureus with specific gene-deletions, it was believed that if particular strains were resistant to the lead compounds, it could provide insights on the likely protein target of the lead antibiotics. However, all six of the compounds utilized in this study were able to inhibit growth of all 50 strains of S. aureus assayed at the chosen concentration of 500 μg/mL concentration (Table 5).
E. coli DH5α, P. aeruginosa PA01 and the 53 S. aureus strains were recovered from frozen (−80° C.) glycerol (15% v/v) stocks on Lysogeny agar (LA)—Gram negative and trypticase soy agar (TSA)—plates at 37° C. for 24 hours. Single colonies were placed in either 3 mL Lysogeny broth (LB)—Gram negative or trypticase soy broth (TSB)—Gram positive and incubated at 37° C., 250 rpm for 18 hours.
The antibiotic activity was determined using a Kirby-Bauer method according to Clinical Standard Laboratory Institute (CSLI) Guidelines (2017). Briefly, 180 μL of a 1 in 200 dilution (in LB or TSB) of overnight cultures of selected Gram negative and Gram positive bacteria were applied to an agar plate containing the solid growth medium, Mueller-Hinton agar (MHA). Sterile discs, inoculated with 50 μL of antibiotic, were first added to the agar plate before the plates were incubated for 24 hours at 37° C. Following incubation, the zone of inhibition (if it existed) was recorded.

Question: `[C-]#[N+]C=Cc1ccc(O)c(Br)c1` [Compound 14] was tested. Which zone of inhibition at 500 µg/mL (MRSA 252 [1]) did it give?
Answer: Its zone of inhibition at 500 µg/mL is 24 mm.

Question: And the zone of inhibition at 500 µg/mL (MSSA 476 [2])?
Answer: The zone of inhibition at 500 µg/mL was 24 mm.

Question: What about the “Hemolytic activity (HC10)” value (red blood cells) of the same molecule?
Answer: The value was greater than 32 µg/mL.

Question: And the zone of inhibition at 500 µg/mL (Escherichia coli DH5α)?
Answer: The zone of inhibition at 500 µg/mL was 26 mm.

Question: And the zone of inhibition at 500 µg/mL [3]?
Answer: The zone of inhibition at 500 µg/mL was 28 mm.

Question: What about the MIC (MRSA 252 [4]) of the same molecule?
Answer: The MIC was 44 µg/mL (≈ 196 µM).

Question: And the MIC (MSSA 476 [5])?
Answer: Its MIC is 242 µg/mL (≈ 1080 µM).

Question: And the “Concentration toxic to HEK 293 cells” value (HEK293 cells; HEK 293)?
Answer: Its value is greater than 32000 ng/mL.

Question: What about the “toxicity towards the HEK293 cell line (in words)” value (HEK293 cells; set concentration of 32 μg/mL) of the same molecule?
Answer: The value was “no toxicity”.

Question: And the zone of inhibition at 500 µg/mL ([6]; strain ASARM 61)?
Answer: Its zone of inhibition at 500 µg/mL is 22 mm.

Question: And the zone of inhibition at 500 µg/mL ([6]; strain ASARM 70)?
Answer: Its zone of inhibition at 500 µg/mL is 20 mm.

Question: What about the zone of inhibition at 500 µg/mL ([6]; strain ASARM 71) of the same molecule?
Answer: The zone of inhibition at 500 µg/mL was 22 mm.

Question: What about the zone of inhibition at 500 µg/mL ([6]; strain ASARM 72) of the same molecule?
Answer: The zone of inhibition at 500 µg/mL was 20 mm.

Question: What about the zone of inhibition at 500 µg/mL ([6]; strain ASARM 73) of the same molecule?
Answer: The zone of inhibition at 500 µg/mL was 20 mm.

Question: And the zone of inhibition at 500 µg/mL ([6]; strain ASARM 75)?
Answer: The zone of inhibition at 500 µg/mL was 20 mm.

Question: And the zone of inhibition at 500 µg/mL ([6]; strain ASARM 76)?
Answer: The zone of inhibition at 500 µg/mL was 22 mm.

Question: What about the zone of inhibition at 500 µg/mL ([6]; strain ASARM 77) of the same molecule?
Answer: Its zone of inhibition at 500 µg/mL is 22 mm.

Question: And the zone of inhibition at 500 µg/mL ([6]; strain ASARM 79)?
Answer: The zone of inhibition at 500 µg/mL was 24 mm.

Question: What about the zone of inhibition at 500 µg/mL ([6]; strain ASARM 80) of the same molecule?
Answer: The zone of inhibition at 500 µg/mL was 25 mm.

Question: And the zone of inhibition at 500 µg/mL ([6]; strain EOE 3)?
Answer: The zone of inhibition at 500 µg/mL was 20 mm.

Question: What about the zone of inhibition at 500 µg/mL ([6]; strain EOE 23) of the same molecule?
Answer: The zone of inhibition at 500 µg/mL was 22 mm.

Question: What about the zone of inhibition at 500 µg/mL ([6]; strain EOE 30) of the same molecule?
Answer: The zone of inhibition at 500 µg/mL was 22 mm.

Question: What about the zone of inhibition at 500 µg/mL ([6]; strain EOE 35) of the same molecule?
Answer: Its zone of inhibition at 500 µg/mL is 18 mm.

Question: And the zone of inhibition at 500 µg/mL ([6]; strain EOE 41)?
Answer: Its zone of inhibition at 500 µg/mL is 20 mm.

Question: And the zone of inhibition at 500 µg/mL ([6]; strain EOE 42)?
Answer: Its zone of inhibition at 500 µg/mL is 18 mm.

Question: What about the zone of inhibition at 500 µg/mL ([6]; strain EOE 45) of the same molecule?
Answer: The zone of inhibition at 500 µg/mL was 20 mm.

Question: What about the zone of inhibition at 500 µg/mL ([6]; strain EOE 52) of the same molecule?
Answer: The zone of inhibition at 500 µg/mL was 25 mm.

Question: What about the zone of inhibition at 500 µg/mL ([6]; strain EOE 54) of the same molecule?
Answer: Its zone of inhibition at 500 µg/mL is 19 mm.

Question: And the zone of inhibition at 500 µg/mL ([6]; strain EOE 57)?
Answer: Its zone of inhibition at 500 µg/mL is 20 mm.

Question: What about the zone of inhibition at 500 µg/mL ([6]; strain S139_7_7) of the same molecule?
Answer: The zone of inhibition at 500 µg/mL was 20 mm.

Question: What about the zone of inhibition at 500 µg/mL ([6]; strain S197_1_1) of the same molecule?
Answer: Its zone of inhibition at 500 µg/mL is 25 mm.

Question: What about the zone of inhibition at 500 µg/mL ([6]; strain S197_1_8) of the same molecule?
Answer: The zone of inhibition at 500 µg/mL was 22 mm.

Question: What about the zone of inhibition at 500 µg/mL ([6]; strain S197_1_9) of the same molecule?
Answer: The zone of inhibition at 500 µg/mL was 22 mm.

Question: And the zone of inhibition at 500 µg/mL ([6]; strain S197_1_10)?
Answer: Its zone of inhibition at 500 µg/mL is 22 mm.

Question: And the zone of inhibition at 500 µg/mL ([6]; strain S295_1_1)?
Answer: The zone of inhibition at 500 µg/mL was 22 mm.

Question: What about the zone of inhibition at 500 µg/mL ([6]; strain S295_1_2) of the same molecule?
Answer: The zone of inhibition at 500 µg/mL was 14 mm.

Question: And the zone of inhibition at 500 µg/mL ([6]; strain S295_1_3)?
Answer: Its zone of inhibition at 500 µg/mL is 20 mm.

Question: And the zone of inhibition at 500 µg/mL ([6]; strain S364_5_11)?
Answer: Its zone of inhibition at 500 µg/mL is 24 mm.

Question: And the zone of inhibition at 500 µg/mL ([6]; strain S364_5_12)?
Answer: Its zone of inhibition at 500 µg/mL is 24 mm.

Question: And the zone of inhibition at 500 µg/mL ([6]; strain Sa_TPS 3026)?
Answer: The zone of inhibition at 500 µg/mL was 16 mm.

Question: And the zone of inhibition at 500 µg/mL ([6]; strain Sa_TPS 3072)?
Answer: Its zone of inhibition at 500 µg/mL is 18 mm.

Question: And the zone of inhibition at 500 µg/mL ([6]; strain Sa_TPS 3092)?
Answer: The zone of inhibition at 500 µg/mL was 24 mm.

Question: What about the zone of inhibition at 500 µg/mL ([6]; strain Sa_TPS 3097) of the same molecule?
Answer: Its zone of inhibition at 500 µg/mL is 18 mm.

Question: What about the zone of inhibition at 500 µg/mL ([6]; strain Sa_TPS 3103) of the same molecule?
Answer: Its zone of inhibition at 500 µg/mL is 26 mm.

Question: And the zone of inhibition at 500 µg/mL ([6]; strain Sa_TPS 3104)?
Answer: The zone of inhibition at 500 µg/mL was 22 mm.

Question: What about the zone of inhibition at 500 µg/mL ([6]; strain Sa_TPS 3106) of the same molecule?
Answer: Its zone of inhibition at 500 µg/mL is 20 mm.

Question: What about the zone of inhibition at 500 µg/mL ([6]; strain Sa_TPS 3118) of the same molecule?
Answer: Its zone of inhibition at 500 µg/mL is 18 mm.

Question: And the zone of inhibition at 500 µg/mL ([6]; strain Sa_TPS 3133)?
Answer: The zone of inhibition at 500 µg/mL was 18 mm.

Question: What about the zone of inhibition at 500 µg/mL ([6]; strain Sa_TPS 3134) of the same molecule?
Answer: Its zone of inhibition at 500 µg/mL is 18 mm.

Question: What about the zone of inhibition at 500 µg/mL ([6]; strain USFL 008) of the same molecule?
Answer: The zone of inhibition at 500 µg/mL was 17 mm.

Question: What about the zone of inhibition at 500 µg/mL ([6]; strain USFL 009) of the same molecule?
Answer: The zone of inhibition at 500 µg/mL was 16 mm.

Question: What about the zone of inhibition at 500 µg/mL ([6]; strain USFL 012) of the same molecule?
Answer: Its zone of inhibition at 500 µg/mL is 20 mm.

Question: And the zone of inhibition at 500 µg/mL ([6]; strain USFL 016)?
Answer: The zone of inhibition at 500 µg/mL was 18 mm.

Question: What about the zone of inhibition at 500 µg/mL ([6]; strain USFL 018) of the same molecule?
Answer: The zone of inhibition at 500 µg/mL was 18 mm.

Question: What about the zone of inhibition at 500 µg/mL ([6]; strain USFL 020) of the same molecule?
Answer: The zone of inhibition at 500 µg/mL was 16 mm.

Question: And the zone of inhibition at 500 µg/mL ([6]; strain USFL 021)?
Answer: Its zone of inhibition at 500 µg/mL is 18 mm.

Question: And the zone of inhibition at 500 µg/mL ([6]; strain USFL 028)?
Answer: The zone of inhibition at 500 µg/mL was 18 mm.

Question: What about the zone of inhibition at 500 µg/mL ([6]; strain USFL 035) of the same molecule?
Answer: Its zone of inhibition at 500 µg/mL is 19 mm.

Question: What about the zone of inhibition at 500 µg/mL ([6]; strain USFL 054) of the same molecule?
Answer: Its zone of inhibition at 500 µg/mL is 18 mm.
